The results in this text go back to patent US7265152B2 (ViroPharma Incorporated, priority 2002, dated 2007).

Each structure is given as a SMILES string. Read-outs that look alike come from different tables or passages of the source.

Assay [1] concerns HCV replicon (BB7 sequence) in Huh-7-Clone A cells. Description: HCV replicon assay: ELISA of NS5A protein in replicon-containing cells (Inhibition of Viral RNA Replication). It counts as cell-based. Conditions: Hepatitis C virus, read-out: Replicon. The procedure, abridged:
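Huh-7-Clone A cells carrying subgenomic BB7 HCV replicon (G418-selectable) incubated 72 h with compound. NS5A protein quantified by cell ELISA: glutaraldehyde fixation, anti-NS5A monoclonal plus HRP secondary, TMB read at OD 650 nm. EC50 derived from 8-point serial dilution dose curve.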

The next assay has as its target T1, HCV NS5B (Hepatitis C virus genotype 1b, UniProt Q9WMX2).
T1 construct: fusion protein, of which the carboxyl terminal 21 amino acids were removed to enhance its solubility; His tag (GSHHHHHH); made in house; host or cells: E. coli
Description: Inhibition of viral RNA-dependent RNA polymerase (RdRp), in vitro biochemical assay. Further details: species or system HCV genotype 1b virus (BB7). The settings on record: read-out: HCV pol-BB7 IC50. The procedure, abridged:
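Purified recombinant NS5B from a genotype 1b consensus (BB7), His-tagged, E. coli-expressed, with the C-terminal 21 residues deleted. Inhibition of RdRp activity in vitro was measured, and IC50 is the concentration giving 50% inhibition.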

Setting [2] is: ranges of EC50 in HCV replicon assay.
Where [3] appears, read: Huh-7-Clone A, NS5A ELISA, 72-hour incubation, ranges of EC50.
Setting [4] is: purified His-tagged NS5B (BB7), carboxyl terminal 21 amino acids removed.
Setting [5] is: HCV NS5B RdRp, BB7, reported as range class.
The mark [6] stands for this setting: HCV replicon assay, ranges of EC50.
The mark [7] stands for this setting: HCV NS5B RdRp, BB7, activity class.
[8] abbreviates: HCV NS5B RdRp, BB7, class symbols A-D.
Setting [9] is: HCV replicon assay, ranges of 50% effective concentration (EC50).
The mark [10] stands for this setting: HCV NS5B polymerase, BB7 (genotype 1b), values given as range classes A-D.

`CNC(=O)c1c(-c2ccc(F)cc2)oc2cc(NS(=O)(=O)C(C)C)c(OC(C)C)cc12` [Example 145, 2-(4-Fluoro-phenyl)-5-isopropoxy-6-(propane-2-sulfonylamino)-benzofuran-3-carboxylic acid methylamide]: in assay [1] (setting [2]), the EC50 is under 10000 nM. Moreover, on HCV NS5B (HCV NS5B RdRp, BB7 genotype 1b), the IC50 is 500 to 5000 nM.
Consider `CNC(=O)c1c(-c2ccc(F)cc2)oc2cc(N(Cc3ccc(OC)cc3)S(C)(=O)=O)c(OCc3ccc(OC)cc3)cc12` [Example 31, 2-(4-Fluoro-phenyl)-6-[methanesulfonyl-(4-methoxy-benzyl)-amino]-5-(4-methoxy-benzyloxy)-benzofuran-3-carboxylic acid methylamide], for which, in assay [1] (setting [3]), the EC50 is under 1000 nM. For the same molecule, the IC50 at HCV NS5B (setting [4]) is at most 500 nM.
As for `CNC(=O)c1c(-c2ccc(F)cc2)oc2cc(S(N)(=O)=O)c(OC(C)C)cc12` [Example 149, 2-(4-Fluoro-phenyl)-5-isopropoxy-6-sulfamoyl-benzofuran-3-carboxylic acid methylamide], in assay [1] (setting [2]), the EC50 is over 30000 nM. In addition, the IC50 on HCV NS5B (HCV NS5B RdRp, BB7 genotype 1b) was in the range of 5000 to 30000 nM.
In the case of `CNC(=O)c1c(-c2ccc(F)cc2)oc2cc(N3CCOCC3)c(OCc3cccc(OC)c3)cc12` [Example 210, 2-(4-Fluoro-phenyl)-5-(3-methoxy-benzyloxy)-6-morpholin-4-yl-benzofuran-3-carboxylic acid methylamide], the EC50 in assay [1] (HCV replicon, range of EC50) was under 1000 nM. In addition, the IC50 on HCV NS5B (setting [5]) was at most 500 nM.
`CNC(=O)c1c(-c2ccc(Br)cc2)oc2ccc(OC)cc12` [Example 70, 2-(4-Bromo-phenyl)-5-methoxy-benzofuran-3-carboxylic acid methylamide]: in assay [1] (setting [3]), the EC50 was under 10000 nM. In addition, the IC50 at HCV NS5B (setting [4]) is at most 500 nM.
Regarding `CNC(=O)c1c(-c2ccc(F)cc2)oc2cc(-c3cc(COC(C)C)on3)c(OC)cc12` [Example 372, 2-(4-Fluoro-phenyl)-6-(5-isopropoxymethyl-isoxazol-3-yl)-5-methoxy-benzofuran-3-carboxylic acid methylamide], in assay [1] (setting [6]), the EC50 is under 1000 nM. For the same molecule, on HCV NS5B (setting [7]), the IC50 was at most 500 nM.
Take `COc1cc2c(C(=O)NC3CC3)c(-c3ccc(F)cc3)oc2cc1-c1c(C)noc1C` [Example 380, 6-(3,5-Dimethyl-isoxazol-4-yl)-2-(4-fluoro-phenyl)-5-methoxy-benzofuran-3-carboxylic acid cyclopropylamide]: the EC50 in assay [1] (setting [6]) is under 1000 nM. The IC50 on HCV NS5B (setting [7]) was at most 500 nM.
Take `CNC(=O)c1c(-c2ccc(F)cc2)oc2cc(C(C)N(C)S(C)(=O)=O)c(OC)cc12` (stereo not drawn) [Example 303, 2-(4-Fluoro-phenyl)-6-[1-(methanesulfonyl-methyl-amino)-ethyl]-5-methoxy-benzofuran-3-carboxylic acid methylamide]: in assay [1] (setting [6]), the EC50 is under 1000 nM. In addition, the IC50 on HCV NS5B (setting [8]) was at most 500 nM.
In the case of `CNC(=O)c1c(-c2ccc(F)cc2)oc2cc(S(=O)(=O)NC3CCC3)c(OC(C)C)cc12` [Example 150, 6-Cyclobutylsulfamoyl-2-(4-fluoro-phenyl)-5-isopropoxy-benzofuran-3-carboxylic acid methylamide], the EC50 in assay [1] (setting [2]) was under 30000 nM. In addition, at HCV NS5B (HCV NS5B RdRp, BB7 genotype 1b), the IC50 lay in the range of 500 to 5000 nM.
`CNC(=O)c1c(-c2ccc(F)cc2)oc2cc(N(CCO)S(C)(=O)=O)c(C3CC3)cc12` [Example 43, 5-Cyclopropyl-2-(4-fluoro-phenyl)-6-[(2-hydroxy-ethyl)-methanesulfonyl-amino]-benzofuran-3-carboxylic acid methylamide]: in assay [1] (setting [3]), the EC50 is under 1000 nM. For the same molecule, on HCV NS5B (setting [4]), the IC50 is at most 500 nM.
Turning to `CCOc1cc2c(C(=O)NC)c(-c3ccc(F)cc3)oc2cc1N(C)S(C)(=O)=O` [Example 38, 5-Ethoxy-2-(4-fluoro-phenyl)-6-(methanesulfonyl-methyl-amino)-benzofuran-3-carboxylic acid methylamide], in assay [1] (setting [3]), the EC50 is under 1000 nM. For the same molecule, on HCV NS5B (setting [4]), the IC50 was at most 500 nM.
Take `CNC(=O)c1c(-c2ccc(F)cc2)oc2cc(N)c(OCc3ccccc3)cc12` [Example 120, 6-Amino-5-benzyloxy-2-(4-fluoro-phenyl)-benzofuran-3-carboxylic acid methylamide]: the EC50 in assay [1] (setting [2]) is under 10000 nM. Moreover, on HCV NS5B (HCV NS5B RdRp, BB7 genotype 1b), the IC50 was at most 500 nM.
Consider `CNC(=O)c1c(-c2ccc(F)cc2)oc2cc(N3CCOCC3)c(OCc3ccc(C(=O)O)cc3)cc12` [Example 267, 4-[2-(4-Fluoro-phenyl)-3-methylcarbamoyl-6-morpholin-4-yl-benzofuran-5-yloxymethyl]-benzoic acid], for which the EC50 in assay [1] (setting [6]) is under 10000 nM. Also, the IC50 at HCV NS5B (setting [8]) was at most 500 nM.
On to `CNC(=O)c1c(-c2ccc(F)cc2)oc2cc(-c3cccnc3)c(OC(C)C)cc12` [Example 153, 2-(4-Fluoro-phenyl)-5-isopropoxy-6-pyridin-3-yl-benzofuran-3-carboxylic acid methylamide], for which the EC50 in assay [1] (setting [2]) was under 10000 nM. On HCV NS5B (HCV NS5B RdRp, BB7 genotype 1b), the IC50 was at most 500 nM.
For the molecule `CNC(=O)c1c(-c2ccc(F)cc2)oc2cc(N(C)S(C)(=O)=O)c(OCc3ccc(F)c(F)c3)cc12` [Example 346, 5-(3,4-Difluoro-benzyloxy)-2-(4-fluoro-phenyl)-6-(methanesulfonyl-methyl-amino)-benzofuran-3-carboxylic acid methylamide], the EC50 in assay [1] (setting [6]) is under 1000 nM. For the same molecule, at HCV NS5B (setting [7]), the IC50 is at most 500 nM.
On to `CNC(=O)c1c(-c2ccncc2)oc2ccc(F)cc12` [Example 96, 5-Fluoro-2-pyridin-4-yl-benzofuran-3-carboxylic acid methylamide], for which the EC50 in assay [1] (setting [2]) was over 30000 nM. For the same molecule, the IC50 on HCV NS5B (HCV NS5B RdRp, BB7 genotype 1b) lay in the range of 500 to 5000 nM.
For `CNC(=O)c1c(-c2ccc(F)cc2)oc2cc(N3CCCC3)c(OC)cc12` [Example 116, 2-(4-Fluoro-phenyl)-5-methoxy-6-pyrrolidin-1-yl-benzofuran-3-carboxylic acid methylamide] the same measures were under 1000 nM and at most 500 nM.
As to `CNC(=O)c1c(-c2ccc(F)cc2)oc2cc(C(C)(C)O)c(C)cc12` [Example 300, 2-(4-Fluoro-phenyl)-6-(1-hydroxy-1-methyl-ethyl)-5-methyl-benzofuran-3-carboxylic acid methylamide], the EC50 in assay [1] (setting [6]) was under 10000 nM. Further, the IC50 on HCV NS5B (setting [8]) is at most 500 nM.
With `CNC(=O)c1c(-c2ccc(F)cc2)oc2cc(C(C)(C)NC(C)=O)c(OC)cc12` [Example 385, 6-(1-Acetylamino-1-methyl-ethyl)-2-(4-fluoro-phenyl)-5-methoxy-benzofuran-3-carboxylic acid methylamide], in assay [1] (setting [9]), the EC50 was under 1000 nM. For the same molecule, the IC50 at HCV NS5B (setting [10]) was at most 500 nM.
Turning to `CNC(=O)c1c(-c2ccc(F)cc2)oc2cc(NC(C)(C)C)c(OC(C)C)cc12` [Example 148, 6-tert-Butylamino-2-(4-fluoro-phenyl)-5-isopropoxy-benzofuran-3-carboxylic acid methylamide], the EC50 in assay [1] (setting [2]) is under 10000 nM. The IC50 at HCV NS5B (HCV NS5B RdRp, BB7 genotype 1b) is at most 500 nM.
As for `CNC(=O)c1c(-c2ccc(C)cc2)oc2ccc(Cl)cc12` [Example 75, 5-Chloro-2-p-tolyl-benzofuran-3-carboxylic acid methylamide], the EC50 in assay [1] (setting [3]) is under 10000 nM. Also, the IC50 at HCV NS5B (setting [4]) is at most 500 nM.
Turning to `CNC(=O)c1c(-c2ccc(F)cc2)oc2cc(-c3cc(C)no3)c(OC(C)C)cc12` [Example 233, 2-(4-Fluoro-phenyl)-5-isopropoxy-6-(3-methyl-isoxazol-5-yl)-benzofuran-3-carboxylic acid methylamide], in assay [1] (HCV replicon, range of EC50), the EC50 was under 30000 nM. At HCV NS5B (setting [5]), the IC50 was at most 500 nM.
Turning to `CNC(=O)c1c(-c2ccc(F)cc2)oc2cc(C3NC(=O)NC3=O)c(OC)cc12` (stereo not drawn) [Example 406, 6-(2,5-Dioxo-imidazolidin-4-yl)-2-(4-fluoro-phenyl)-5-methoxy-benzofuran-3-carboxylic acid methylamide], the EC50 in assay [1] (setting [9]) is under 1000 nM. Also, the IC50 on HCV NS5B (setting [10]) was in the range of 500 to 5000 nM.
Turning to `CCNc1cc2oc(-c3ccc(F)cc3)c(C(=O)NC)c2cc1OCCCBr` [Example 365, 5-(3-Bromo-propoxy)-6-ethylamino-2-(4-fluoro-phenyl)-benzofuran-3-carboxylic acid methylamide], the EC50 in assay [1] (setting [6]) is under 1000 nM. Also, the IC50 on HCV NS5B (setting [7]) is at most 500 nM.
For `CCc1cc2c(C(=O)NC)c(-c3ccc(F)cc3)oc2cc1C(C)=O` [Example 340, 6-Acetyl-5-ethyl-2-(4-fluoro-phenyl)-benzofuran-3-carboxylic acid methylamide] the same measures were under 1000 nM and at most 500 nM.
As for `CNC(=O)c1c(-c2ccc(F)cc2)oc2cc(N3CCOCC3)c(OCc3noc(-c4c(C)noc4C)n3)cc12` [Example 203, 5-[5-(3,5-Dimethyl-isoxazol-4-yl)-[1,2,4]oxadiazol-3-ylmethoxy]-2-(4-fluoro-phenyl)-6-morpholin-4-yl-benzofuran-3-carboxylic acid methylamide], the EC50 in assay [1] (HCV replicon, range of EC50) is under 10000 nM. The IC50 on HCV NS5B (setting [5]) was in the range of 500 to 5000 nM.
Consider `CNC(=O)c1c(-c2ccc(F)cc2)oc2cc(S(=O)(=O)NC3CC3)c(OC(C)C)cc12` [Example 155, 6-Cyclopropylsulfamoyl-2-(4-fluoro-phenyl)-5-isopropoxy-benzofuran-3-carboxylic acid methylamide], for which, in assay [1] (setting [2]), the EC50 was under 10000 nM. For the same molecule, at HCV NS5B (HCV NS5B RdRp, BB7 genotype 1b), the IC50 was at most 500 nM.
